# From ChEMBL document CHEMBL5500377, “Design, synthesis and molecular modeling of novel D-ring substituted steroidal 4,5-dihydropyrazole thiazolinone derivatives as anti-inflammatory agents by inhibition of COX-2/iNOS production and down-regulation of NF-κB/MAPKs in LPS-induced RAW264.7 macrophage cells” (Eur J Med Chem, 2024)
# Activity calls are given as the source filed them. The rule behind the calls is not given here.
# Tests used:
# [1] = Cytotoxicity against mouse RAW264.7 cells assessed as cell viability at 5 uM measured after 24 hrs incubation by MTT assay relative to control; format: toxicity, cell-based; conditions: read-out: Activity
# RAW264.7 [2] = assay: Anti-inflammatory activity against mouse RAW264.7 cells assessed as inhibition of LPS-induced NO production measured after 24 hrs incubation by Griess assay; format: functional, cell-based; conditions: RAW264.7, 24 h
# RAW264.7 [3] = assay: Anti-inflammatory activity against mouse RAW264.7 cells assessed as inhibition of LPS-induced NO production at 5 uM measured after 24 hrs incubation by Griess assay relative to control; format: functional
# RAW264.7 [4] = assay: Inhibition of JNK protein level in LPS-induced mouse RAW264.7 cells at 2.5 to 10 uM pretreated for 1 hr followed by induced with LPS measured after 24 hrs by Western blot analysis; format: functional, cell-based; conditions: dose 2.5-10 µM, time 25.0 hrs
# RAW264.7 [5] = assay: Inhibition of LPS-induced NFkappaB p65 translocation from cytosol to nucleus in mouse RAW264.7 cells at 2.5 to 10 uM pretreated for 1 hr followed by induced with LPS measured after 24 hrs by Western blot analysis; format: subcellular; conditions: dose 2.5-10 µM, time 25.0 hrs
# RAW264.7 [6] = assay: Anti-inflammatory activity against mouse RAW264.7 cells assessed as inhibition of LPS-induced COX2 level at 2.5 uM pretreated for 1 hr followed by induced with LPS measured after 24 hrs by ELISA (reference value: 95.38 pg/ml); format: functional; conditions: time 25 hrs
# RAW264.7 [7] = assay: Inhibition of LPS-induced translocation of NFkappaB p65 heterodimer into nucleus in mouse RAW264.7 cells at 2.5 to 10 uM pretreated for 1 hr followed by induced with LPS measured after 24 hrs by Western blot analysis; format: subcellular; conditions: dose 2.5-10 µM, time 25.0 hrs
# RAW264.7 [8] = assay: Anti-inflammatory activity against mouse RAW264.7 cells assessed as inhibition of LPS-induced iNOS mRNA level pretreated for 1 hr followed by induced with LPS measured after 6 hrs by quantitative RT-PCR analysis; format: functional, cell-based; conditions: dose 2.5-20 µM, time 7.0 hrs
# RAW264.7 [9] = assay: Inhibition of ERK protein level in LPS-induced mouse RAW264.7 cells at 2.5 to 10 uM pretreated for 1 hr followed by induced with LPS measured after 24 hrs by Western blot analysis; format: functional, cell-based; conditions: dose 2.5-10 µM, time 25.0 hrs
# RAW264.7 [10] = assay: Anti-inflammatory activity against mouse RAW264.7 cells assessed as inhibition of LPS-induced COX2 mRNA level pretreated for 1 hr followed by induced with LPS measured after 6 hrs by quantitative RT-PCR analysis; format: functional, cell-based; conditions: dose 2.5-20 µM, time 7.0 hrs
# BV-2 = assay: Anti-inflammatory activity against […] assessed as inhibition of LPS-induced NO production at 2.5 to 20 uM measured after 24 hrs incubation by Griess assay; format: functional, cell-based; conditions: dose 2.5-20 µM
# RAW264.7 [11] = assay: Anti-inflammatory activity against mouse RAW264.7 cells assessed as inhibition of LPS-induced TNFalpha level pretreated for 1 hr followed by induced with LPS measured after 24 hrs by ELISA; format: functional, cell-based; conditions: dose 2.5-20 µM, time 25.0 hrs
# RAW264.7 [12] = assay: Anti-inflammatory activity against mouse RAW264.7 cells assessed as inhibition of LPS-induced TNFalpha level at 5 uM pretreated for 1 hr followed by induced with LPS measured after 24 hrs by ELISA (reference value: 0.61 ng/ml); format: functional; conditions: time 25 hrs
# RAW264.7 [13] = assay: Anti-inflammatory activity against mouse RAW264.7 cells assessed as inhibition of LPS-induced iNOS level pretreated for 1 hr followed by induced with LPS measured after 24 hrs by Western blot analysis; format: functional, cell-based; conditions: dose 2.5-10 µM, time 25.0 hrs
# RAW264.7 [14] = assay: Anti-inflammatory activity against mouse RAW264.7 cells assessed as inhibition of LPS-induced TNFalpha level at 2.5 uM pretreated for 1 hr followed by induced with LPS measured after 24 hrs by ELISA (reference value: 0.61 ng/ml); format: functional; conditions: time 25 hrs
# RAW264.7 [15] = assay: Inhibition of LPS-induced ERK phosphorylation in mouse RAW264.7 cells at 2.5 to 10 uM pretreated for 1 hr followed by induced with LPS measured after 24 hrs by Western blot analysis; format: cell-based; conditions: dose 2.5-10 µM, time 25.0 hrs
# RAW264.7 [16] = assay: Anti-inflammatory activity against mouse RAW264.7 cells assessed as inhibition of LPS-induced COX2 level pretreated for 1 hr followed by induced with LPS measured after 24 hrs by ELISA; format: functional, cell-based; conditions: dose 2.5-20 µM, time 25.0 hrs
# RAW264.7 [17] = assay: Anti-inflammatory activity against mouse RAW264.7 cells assessed as inhibition of LPS-induced activation of NF-kappaB p65 by measuring phosphorylation pretreated for 1 hr followed by induced with LPS measured after 24 hrs by Western blot analysis; format: functional, cell-based; conditions: dose 2.5-10 µM, time 25.0 hrs
# RAW264.7 [18] = assay: Anti-inflammatory activity against mouse RAW264.7 cells assessed as inhibition of LPS-induced COX2 level pretreated for 1 hr followed by induced with LPS measured after 24 hrs by Western blot analysis; format: functional, cell-based; conditions: dose 2.5-10 µM, time 25.0 hrs
# [19] = molecular target: MAP kinase p38 (Mus musculus) (UniProt P47811+O08911+Q9WUI1+Q9Z1B7); assay: Inhibition of LPS-induced p38 MAPK phosphorylation in mouse RAW264.7 cells at 2.5 to 10 uM pretreated for 1 hr followed by induced with LPS measured after 24 hrs by Western blot analysis; format: cell-based; conditions: dose 2.5-10 µM, time 25.0 hrs
# [20] = molecular target: c-Jun N-terminal kinase (Mus musculus) (UniProt Q91Y86+Q9WTU6+Q61831); assay: Inhibition of LPS-induced JNK phosphorylation in mouse RAW264.7 cells at 2.5 to 10 uM pretreated for 1 hr followed by induced with LPS measured after 24 hrs by Western blot analysis; format: cell-based; conditions: dose 2.5-10 µM, time 25.0 hrs
# c-Jun N-terminal kinase (Mus musculus), sequence (Q61831 whole entry, looked up): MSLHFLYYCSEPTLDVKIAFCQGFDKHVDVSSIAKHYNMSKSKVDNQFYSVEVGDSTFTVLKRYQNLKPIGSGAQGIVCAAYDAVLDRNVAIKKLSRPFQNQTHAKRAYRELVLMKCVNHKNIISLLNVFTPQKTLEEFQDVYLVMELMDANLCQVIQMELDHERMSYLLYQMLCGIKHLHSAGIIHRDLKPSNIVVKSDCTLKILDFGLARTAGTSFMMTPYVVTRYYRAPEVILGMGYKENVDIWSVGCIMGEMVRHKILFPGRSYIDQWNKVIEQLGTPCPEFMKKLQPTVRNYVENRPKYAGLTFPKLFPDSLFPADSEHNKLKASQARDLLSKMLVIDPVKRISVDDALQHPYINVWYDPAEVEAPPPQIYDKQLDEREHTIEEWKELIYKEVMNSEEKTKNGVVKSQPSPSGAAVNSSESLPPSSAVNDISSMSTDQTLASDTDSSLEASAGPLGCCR
# c-Jun N-terminal kinase (Mus musculus), sequence (Q91Y86 whole entry, looked up): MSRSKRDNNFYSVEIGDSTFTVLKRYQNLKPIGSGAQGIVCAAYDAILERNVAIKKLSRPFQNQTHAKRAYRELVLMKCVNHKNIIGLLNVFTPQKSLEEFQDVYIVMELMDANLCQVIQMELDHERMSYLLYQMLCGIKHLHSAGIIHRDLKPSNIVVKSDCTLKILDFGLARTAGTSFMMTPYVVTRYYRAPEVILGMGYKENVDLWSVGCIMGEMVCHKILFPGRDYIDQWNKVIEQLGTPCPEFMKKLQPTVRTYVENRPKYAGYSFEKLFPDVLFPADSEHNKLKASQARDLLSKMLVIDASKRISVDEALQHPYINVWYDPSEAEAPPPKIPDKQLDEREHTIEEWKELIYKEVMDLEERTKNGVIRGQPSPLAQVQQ
# c-Jun N-terminal kinase (Mus musculus), sequence (Q9WTU6 whole entry, looked up): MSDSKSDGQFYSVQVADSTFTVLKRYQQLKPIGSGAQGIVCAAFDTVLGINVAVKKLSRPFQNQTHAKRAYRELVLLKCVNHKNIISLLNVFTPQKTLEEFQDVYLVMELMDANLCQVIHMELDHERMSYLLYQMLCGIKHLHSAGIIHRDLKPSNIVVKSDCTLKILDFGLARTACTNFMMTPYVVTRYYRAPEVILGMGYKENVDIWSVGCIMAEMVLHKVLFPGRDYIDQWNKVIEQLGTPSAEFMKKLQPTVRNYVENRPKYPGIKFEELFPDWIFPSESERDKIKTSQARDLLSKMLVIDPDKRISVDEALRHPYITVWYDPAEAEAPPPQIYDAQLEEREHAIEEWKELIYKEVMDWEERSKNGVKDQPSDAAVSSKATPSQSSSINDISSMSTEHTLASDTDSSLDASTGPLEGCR
# RAW264.7 [21] = assay: Inhibition of p38 MAPK protein level in LPS-induced mouse RAW264.7 cells at 2.5 to 10 uM pretreated for 1 hr followed by induced with LPS measured after 24 hrs by Western blot analysis; format: functional, cell-based; conditions: dose 2.5-10 µM, time 25.0 hrs
# RAW264.7 [22] = assay: Anti-inflammatory activity against mouse RAW264.7 cells assessed as inhibition of LPS-induced TNFalpha mRNA level pretreated for 1 hr followed by induced with LPS measured after 6 hrs by quantitative RT-PCR analysis; format: functional, cell-based; conditions: dose 2.5-20 µM, time 7.0 hrs
# RAW264.7 [23] = assay: Reduction in LPS-induced nuclear p65 level in mouse RAW264.7 cells at 2.5 to 10 uM pretreated for 1 hr followed by induced with LPS measured after 24 hrs by Western blot analysis; format: functional, cell-based; conditions: dose 2.5-10 µM, time 25.0 hrs
# RAW264.7 [24] = assay: Anti-inflammatory activity against mouse RAW264.7 cells assessed as inhibition of LPS-induced COX2 level at 10 uM pretreated for 1 hr followed by induced with LPS measured after 24 hrs by ELISA (reference value: 95.38 pg/ml); format: functional; conditions: time 25 hrs
# RAW264.7 [25] = assay: Anti-inflammatory activity against mouse RAW264.7 cells assessed as inhibition of LPS-induced COX2 level at 5 uM pretreated for 1 hr followed by induced with LPS measured after 24 hrs by ELISA (reference value: 95.38 pg/ml); format: functional; conditions: time 25 hrs
# RAW264.7 [26] = assay: Anti-inflammatory activity against mouse RAW264.7 cells assessed as inhibition of LPS-induced COX2 level at 20 uM pretreated for 1 hr followed by induced with LPS measured after 24 hrs by ELISA (reference value: 95.38 pg/ml); format: functional; conditions: time 25 hrs
# RAW264.7 [27] = assay: Anti-inflammatory activity against mouse RAW264.7 cells assessed as inhibition of LPS-induced IL-6 mRNA level pretreated for 1 hr followed by induced with LPS measured after 6 hrs by quantitative RT-PCR analysis; format: functional, cell-based; conditions: dose 2.5-20 µM, time 7.0 hrs
# RAW264.7 [28] = assay: Anti-inflammatory activity against mouse RAW264.7 cells assessed as inhibition of LPS-induced TNFalpha level at 10 uM pretreated for 1 hr followed by induced with LPS measured after 24 hrs by ELISA (reference value: 0.61 ng/ml); format: functional; conditions: time 25 hrs
# RAW264.7 [29] = assay: Anti-inflammatory activity against mouse RAW264.7 cells assessed as inhibition of LPS-induced TNFalpha level at 20 uM pretreated for 1 hr followed by induced with LPS measured after 24 hrs by ELISA (reference value: 0.61 ng/ml); format: functional; conditions: time 25 hrs
structure (smiles),measurement,setting,value
C[C@]12CC[C@H]3[C@@H](CC=C4C[C@@H](O)CC[C@@]43C)[C@@H]1CC[C@@H]2C1=NN(C2=NC(=O)CS2)C(c2ccccc2F)C1 (stereo not given in full),"viability at 24 h, 5 µM",[1],86.4%
same,IC50,RAW264.7 [2],5.41 µM
same,inhibition at 5 µM,RAW264.7 [3],46.8%
Cc1ccc(C2CC([C@H]3CC[C@H]4[C@@H]5CC=C6C[C@@H](O)CC[C@]6(C)[C@H]5CC[C@]34C)=NN2C2=NC(=O)CS2)cc1 (stereo not given in full),"viability at 24 h, 5 µM",[1],88.5%
same,inhibition at 5 µM,RAW264.7 [3],35.4%
C[C@]12CC[C@H]3[C@@H](CC=C4C[C@@H](O)CC[C@@]43C)[C@@H]1CC[C@@H]2C1=NN(C2=NC(=O)CS2)C(c2cccc(Cl)c2)C1 (stereo not given in full),"viability at 24 h, 5 µM",[1],73.3%
same,IC50,RAW264.7 [2],5.14 µM
same,inhibition at 5 µM,RAW264.7 [3],50.7%
C[C@]12CC[C@H]3[C@@H](CC=C4C[C@@H](O)CC[C@@]43C)[C@@H]1CC[C@@H]2C1=NN(C2=NC(=O)CS2)C(c2ccc(F)cc2)C1 (stereo not given in full),"viability at 24 h, 5 µM",[1],90.9%
same,IC50,RAW264.7 [2],4.24 µM
same,inhibition at 5 µM,RAW264.7 [3],44.7%
C[C@]12CC[C@H]3[C@@H](CC=C4C[C@@H](O)CC[C@@]43C)[C@@H]1CC[C@@H]2C1=NN(C2=NC(=O)CS2)C(c2ccc(Cl)cc2)C1 (stereo not given in full),"viability at 24 h, 5 µM",[1],85.1%
same,IC50,RAW264.7 [2],4.07 µM
same,inhibition at 5 µM,RAW264.7 [3],46.3%
COc1ccc(C2CC([C@H]3CC[C@H]4[C@@H]5CC=C6C[C@@H](O)CC[C@]6(C)[C@H]5CC[C@]34C)=NN2C2=NC(=O)CS2)cc1 (stereo not given in full),"viability at 24 h, 5 µM",[1],95.9%
same,inhibition at 5 µM,RAW264.7 [3],30.7%
C[C@]12CC[C@H]3[C@@H](CC=C4C[C@@H](O)CC[C@@]43C)[C@@H]1CC[C@@H]2C1=NN(C2=NC(=O)CS2)C(c2cccc(F)c2)C1 (stereo not given in full),Activity,RAW264.7 [4],inactive
same,"viability at 24 h, 5 µM",[1],97.4%
same,inhibition,RAW264.7 [5],Active
same,Activity,RAW264.7 [6],0.0824 ng/mL
same,inhibition,RAW264.7 [7],Active
same,IC50,RAW264.7 [2],2.34 µM
same,inhibition,RAW264.7 [8],Dose-Dependent Effect
same,inhibition,RAW264.7 [9],inactive
same,inhibition,RAW264.7 [10],Dose-Dependent Effect
same,inhibition,BV-2,Active
same,inhibition,RAW264.7 [11],Dose-Dependent Effect
same,Activity,RAW264.7 [12],0.42 ng/mL
same,inhibition,RAW264.7 [13],Dose-Dependent Effect
same,Activity,RAW264.7 [14],0.51 ng/mL
same,inhibition,RAW264.7 [15],Active
same,inhibition,RAW264.7 [16],Dose-Dependent Effect
same,inhibition,RAW264.7 [17],Dose-Dependent Effect
same,inhibition,RAW264.7 [18],Dose-Dependent Effect
same,inhibition,[19],Active
same,inhibition,[20],Active
same,Activity,RAW264.7 [21],inactive
same,inhibition,RAW264.7 [22],Dose-Dependent Effect
same,inhibition,RAW264.7 [23],Active
same,Activity,RAW264.7 [24],0.0428 ng/mL
same,Activity,RAW264.7 [25],0.0624 ng/mL
same,Activity,RAW264.7 [26],0.0378 ng/mL
same,inhibition,RAW264.7 [27],Dose-Dependent Effect
same,Activity,RAW264.7 [28],0.33 ng/mL
same,Activity,RAW264.7 [29],0.3 ng/mL
same,inhibition at 5 µM,RAW264.7 [3],45.4%
CSc1ccc(C2CC([C@H]3CC[C@H]4[C@@H]5CC=C6C[C@@H](O)CC[C@]6(C)[C@H]5CC[C@]34C)=NN2C2=NC(=O)CS2)cc1 (stereo not given in full),"viability at 24 h, 5 µM",[1],82.2%
same,inhibition at 5 µM,RAW264.7 [3],45.2%
C[C@]12CC[C@H]3[C@@H](CC=C4C[C@@H](O)CC[C@@]43C)[C@@H]1CC[C@@H]2C1=NN(C2=NC(=O)CS2)C(c2ccccc2OCc2ccccc2)C1 (stereo not given in full),"viability at 24 h, 5 µM",[1],69%
same,inhibition at 5 µM,RAW264.7 [3],48.2%
